Reference: PMC5218480 (PLoS ONE, 2017)

System: MV-4-11 cells
Experiment: Gene expression microarray analysis (Affymetrix PrimeView) and GSEA
Assay type: cell-based, human
Set-up: RFU PODN (11730768_x_at) / Fold change /veh PODN (11730768_x_at) / RFU LINC00158 (11744669_a_at) / Fold change /veh LINC00158 (11744669_a_at) / RFU DUSP10 (11751237_a_at) / Fold change /veh DUSP10 (11751237_a_at) / RFU ID3 (11757404_x_at) / Fold change /veh ID3 (11757404_x_at) / RFU PLEKHG5 (11737974_s_at) / Fold change /veh PLEKHG5 (11737974_s_at) / RFU LRRC4B (11730491_at) / Fold change /veh LRRC4B (11730491_at) / RFU GIMAP4 (11747438_a_at) / Fold change /veh GIMAP4 (11747438_a_at) / RFU KRT8 (11758183_x_at) / Fold change /veh KRT8 (11758183_x_at) / RFU CNN1 (11734310_a_at) / Fold change /veh CNN1 (11734310_a_at) / RFU VPS37D (11726825_at) / Fold change /veh VPS37D (11726825_at) / RFU C10orf10 (11716522_x_at) / Fold change /veh C10orf10 (11716522_x_at) / RFU KIR2DL2 /// KIR2DL4 /// KIR2DL5A /// KIR2DL5B /// KIR2DS1 /// KIR2DS2 /// KIR2DS3 /// KIR2DS4 /// KIR3DL3 /// KIR3DL3 /// KIR3DS1 (11738374_at) / Fold change /veh KIR2DL2 /// KIR2DL4 /// KIR2DL5A /// KIR2DL5B /// KIR2DS1 /// KIR2DS2 /// KIR2DS3 /// KIR2DS4 /// KIR3DL3 /// KIR3DL3 /// KIR3DS1 (11738374_at) / RFU C1QL1 (11718748_at) / Fold change /veh C1QL1 (11718748_at) / RFU TMPRSS4 (11747572_a_at) / Fold change /veh TMPRSS4 (11747572_a_at) / RFU HAMP (11756126_x_at) / Fold change /veh HAMP (11756126_x_at) / RFU RNFT2 (11725882_a_at) / Fold change /veh RNFT2 (11725882_a_at) / RFU NR4A2 (11747474_a_at) / Fold change /veh NR4A2 (11747474_a_at) / RFU ABCC12 (11746883_a_at) / Fold change /veh ABCC12 (11746883_a_at) / RFU TMEM136 (11760407_x_at) / Fold change /veh TMEM136 (11760407_x_at) / RFU CLDN22 /// WWC2 (11732394_at) / Fold change /veh CLDN22 /// WWC2 (11732394_at) / RFU HLA-DPB1 (11760878_x_at) / Fold change /veh HLA-DPB1 (11760878_x_at) / RFU SPINT1 (11716480_a_at) / Fold change /veh SPINT1 (11716480_a_at) / RFU GAP43 (11754022_s_at) / Fold change /veh GAP43 (11754022_s_at) / RFU A4GNT (11735810_at) / Fold change /veh A4GNT (11735810_at) / RFU PRB3 (11715151_x_at) / Fold change /veh PRB3 (11715151_x_at) / RFU TUBB4B (11761932_at) / Fold change /veh TUBB4B (11761932_at) / RFU CAPN14 (11732068_a_at) / Fold change /veh CAPN14 (11732068_a_at) / RFU TMCC2 (11721928_a_at) / Fold change /veh TMCC2 (11721928_a_at) / RFU IRGQ (11745062_a_at) / Fold change /veh IRGQ (11745062_a_at) / RFU FAM174B (11720279_a_at) / Fold change /veh FAM174B (11720279_a_at) / RFU TMPRSS4 (11748680_a_at) / Fold change /veh TMPRSS4 (11748680_a_at) / RFU FAM212B (11763350_a_at) / Fold change /veh FAM212B (11763350_a_at) / RFU PLEKHG5 (11743358_a_at) / Fold change /veh PLEKHG5 (11743358_a_at) / RFU ZSCAN30 (11745921_a_at) / Fold change /veh ZSCAN30 (11745921_a_at) / RFU CMKLR1 (11741424_a_at) / Fold change /veh CMKLR1 (11741424_a_at) / RFU LOC101060620 /// MAPK8IP1 (11723275_at) / Fold change /veh LOC101060620 /// MAPK8IP1 (11723275_at) / RFU SPTSSB (11747773_x_at) / Fold change /veh SPTSSB (11747773_x_at) / RFU PRSS12 (11739890_at) / Fold change /veh PRSS12 (11739890_at) / RFU BIN1 (11741810_x_at) / Fold change /veh BIN1 (11741810_x_at) / RFU WNT11 (11732464_a_at) / Fold change /veh WNT11 (11732464_a_at) / RFU C10orf10 (11716521_a_at) / Fold change /veh C10orf10 (11716521_a_at) / RFU C5orf56 (11738089_at) / Fold change /veh C5orf56 (11738089_at) / RFU CYB561 (11721691_x_at) / Fold change /veh CYB561 (11721691_x_at) / RFU ANKRD19P (11752326_a_at) / Fold change /veh ANKRD19P (11752326_a_at) / RFU OR2T12 /// OR2T33 /// OR2T8 (11738714_s_at) / Fold change /veh OR2T12 /// OR2T33 /// OR2T8 (11738714_s_at) / RFU VCAN (11748164_a_at) / Fold change /veh VCAN (11748164_a_at) / RFU JSRP1 (11732532_at) / Fold change /veh JSRP1 (11732532_at) / RFU KRTAP10-11 (11738290_x_at) / Fold change /veh KRTAP10-11 (11738290_x_at) / RFU MYO3A (11730013_a_at) / Fold change /veh MYO3A (11730013_a_at) / RFU EBF3 (11725865_a_at) / Fold change /veh EBF3 (11725865_a_at) / RFU CAMK2N1 (11719241_x_at) / Fold change /veh CAMK2N1 (11719241_x_at) / RFU C5orf56 (11738088_a_at) / Fold change /veh C5orf56 (11738088_a_at) / RFU OLFML3 (11715873_a_at) / Fold change /veh OLFML3 (11715873_a_at) / RFU LOC100653217 /// NTM (11731650_a_at) / Fold change /veh LOC100653217 /// NTM (11731650_a_at) / RFU MAPK11 (11762145_a_at) / Fold change /veh MAPK11 (11762145_a_at) / RFU FIZ1 (11724087_x_at) / Fold change /veh FIZ1 (11724087_x_at) / RFU OASL (11726364_x_at) / Fold change /veh OASL (11726364_x_at) / RFU SOX15 (11748057_x_at) / Fold change /veh SOX15 (11748057_x_at) / RFU CD79A (11719716_a_at) / Fold change /veh CD79A (11719716_a_at) / RFU HIST1H1D (11736915_at) / Fold change /veh HIST1H1D (11736915_at) / RFU CASKIN2 (11723855_a_at) / Fold change /veh CASKIN2 (11723855_a_at) / RFU LOC730098 (11760151_x_at) / Fold change /veh LOC730098 (11760151_x_at) / RFU OR4N2 (11742367_at) / Fold change /veh OR4N2 (11742367_at) / RFU PRRT2 (11749266_a_at) / Fold change /veh PRRT2 (11749266_a_at) / RFU SNX32 (11753110_a_at) / Fold change /veh SNX32 (11753110_a_at) / RFU CDHR5 (11726645_a_at) / Fold change /veh CDHR5 (11726645_a_at) / RFU RCAN1 (11760418_a_at) / Fold change /veh RCAN1 (11760418_a_at) / RFU FAM167A (11723789_a_at) / Fold change /veh FAM167A (11723789_a_at) / RFU FAM26E (11764081_at) / Fold change /veh FAM26E (11764081_at) / RFU ISYNA1 (11749810_s_at) / Fold change /veh ISYNA1 (11749810_s_at) / RFU ACY1 (11761880_at) / Fold change /veh ACY1 (11761880_at) / RFU 11764098_at / Fold change /veh 11764098_at / RFU SAMD14 (11745864_x_at) / Fold change /veh SAMD14 (11745864_x_at) / RFU NPB (11741838_a_at) / Fold change /veh NPB (11741838_a_at) / RFU TMPRSS6 (11731388_a_at) / Fold change /veh TMPRSS6 (11731388_a_at) / RFU KRTAP10-2 (11738614_at) / Fold change /veh KRTAP10-2 (11738614_at) / RFU ARHGAP8 /// PRR5-ARHGAP8 (11727945_x_at) / Fold change /veh ARHGAP8 /// PRR5-ARHGAP8 (11727945_x_at) / RFU KRTAP5-7 /// NADSYN1 (11734609_at) / Fold change /veh KRTAP5-7 /// NADSYN1 (11734609_at) / RFU RASL12 (11751679_a_at) / Fold change /veh RASL12 (11751679_a_at) / RFU CDKN2B (11736163_a_at) / Fold change /veh CDKN2B (11736163_a_at) / RFU PRF1 (11729649_at) / Fold change /veh PRF1 (11729649_at) / RFU, ZNF638 /// ZNF638-IT1 / Fold change vs veh, ZNF638 /// ZNF638-IT1 / RFU, PANK3 / Fold change vs veh, PANK3 / RFU, SH3YL1 / Fold change vs veh, SH3YL1 / RFU, ZEB2 / Fold change vs veh, ZEB2 / RFU, NRIP1 / Fold change vs veh, NRIP1 / RFU, PTTG1IP / Fold change vs veh, PTTG1IP / RFU, CAPN2 / Fold change vs veh, CAPN2 / RFU, MED14 / Fold change vs veh, MED14 / RFU, SNORA58 / Fold change vs veh, SNORA58 / RFU, C1orf63 / Fold change vs veh, C1orf63 / RFU, LRRFIP1 / Fold change vs veh, LRRFIP1 / RFU, NDUFAF7 / Fold change vs veh, NDUFAF7 / RFU, SLC12A2 / Fold change vs veh, SLC12A2 / RFU, IBTK / Fold change vs veh, IBTK / RFU, ESF1 / Fold change vs veh, ESF1 / Fold change vs veh, TMEM50B / RFU, TAOK1 / Fold change vs veh, TAOK1 / RFU, ACBD3 / Fold change vs veh, ACBD3 / RFU, TMA16 / Fold change vs veh, TMA16 / RFU, RWDD3 / Fold change vs veh, RWDD3 / RFU, BCAT1 / Fold change vs veh, BCAT1 / RFU, EDEM3 / Fold change vs veh, EDEM3 / RFU, TMEM33 / Fold change vs veh, TMEM33 / RFU, WDR75 / Fold change vs veh, WDR75 / RFU, AHCTF1 / Fold change vs veh, AHCTF1 / RFU, TFRC / Fold change vs veh, TFRC / RFU, ZDHHC17 / Fold change vs veh, ZDHHC17 / RFU, NOM1 / Fold change vs veh, NOM1 / RFU, ARL8B / Fold change vs veh, ARL8B / RFU, ZBTB11 / Fold change vs veh, ZBTB11 / RFU, TAMM41 / Fold change vs veh, TAMM41 / RFU, KIAA1704 /// LOC100996395 / Fold change vs veh, KIAA1704 /// LOC100996395 / RFU, ING1 / Fold change vs veh, ING1 / RFU, TRMT61B / Fold change vs veh, TRMT61B / RFU, FUBP3 / Fold change vs veh, FUBP3 / RFU, TP53 / Fold change vs veh, TP53 / RFU, TNKS2 / Fold change vs veh, TNKS2 / RFU, ZFP14 / Fold change vs veh, ZFP14 / RFU, ACTR2 / Fold change vs veh, ACTR2 / RFU, PPP3R1 / Fold change vs veh, PPP3R1 / RFU, PIK3R1 / Fold change vs veh, PIK3R1 / RFU, HNRNPA1 / Fold change vs veh, HNRNPA1 / RFU, RNF170 / Fold change vs veh, RNF170 / RFU, ZNF28 / Fold change vs veh, ZNF28 / RFU, RNGTT / Fold change vs veh, RNGTT / RFU, OGT / Fold change vs veh, OGT / RFU, BRD1 / Fold change vs veh, BRD1 / RFU, MARS / Fold change vs veh, MARS / RFU, ZNF655 / Fold change vs veh, ZNF655 / RFU, FAHD1 / Fold change vs veh, FAHD1 / RFU, BDP1 / Fold change vs veh, BDP1 / RFU, LRRCC1 / Fold change vs veh, LRRCC1 / RFU, ARID1A / Fold change vs veh, ARID1A / RFU, ZNF146 / Fold change vs veh, ZNF146 / RFU, ZNF330 / Fold change vs veh, ZNF330 / RFU, GPN3 / Fold change vs veh, GPN3 / RFU, C9orf123 / Fold change vs veh, C9orf123 / RFU, N4BP2L2 / Fold change vs veh, N4BP2L2 / RFU, ARFIP1 / Fold change vs veh, ARFIP1 / RFU, FAM179B / Fold change vs veh, FAM179B / RFU, BCL10 / Fold change vs veh, BCL10 / RFU, UHRF1BP1L / Fold change vs veh, UHRF1BP1L / RFU, BET1 / Fold change vs veh, BET1 / RFU, CNOT2 / Fold change vs veh, CNOT2 / RFU, ZNF268 / Fold change vs veh, ZNF268 / Fold change vs veh, ZNF507 / RFU, DGCR2 / Fold change vs veh, DGCR2 / RFU, WDSUB1 / Fold change vs veh, WDSUB1 / Fold change vs veh, HSP90B1 /// MIR3652 / RFU, ADSS / Fold change vs veh, ADSS / RFU, GK / Fold change vs veh, GK / RFU, ZNF148 / Fold change vs veh, ZNF148 / RFU, TAF9 / Fold change vs veh, TAF9 / RFU, SLC1A5 / Fold change vs veh, SLC1A5 / RFU, SLMO2 / Fold change vs veh, SLMO2 / RFU, ABCC4 / Fold change vs veh, ABCC4 / RFU, LOC101060439 /// RAP1B / Fold change vs veh, LOC101060439 /// RAP1B / RFU, RFX7 / Fold change vs veh, RFX7 / RFU, GTPBP10 / Fold change vs veh, GTPBP10 / RFU, CNEP1R1 / Fold change vs veh, CNEP1R1 / RFU, BIVM-ERCC5 /// ERCC5 / Fold change vs veh, BIVM-ERCC5 /// ERCC5 / RFU, ILF3 / Fold change vs veh, ILF3 / RFU 11762660_at / Fold change /veh 11762660_at / RFU VCAN (11757783_s_at) / Fold change /veh VCAN (11757783_s_at) / RFU DDX43 (11728927_at) / Fold change /veh DDX43 (11728927_at) / RFU KRT8 (11758188_x_at) / Fold change /veh KRT8 (11758188_x_at) / RFU NKD1 (11759106_at) / Fold change /veh NKD1 (11759106_at) / RFU SRD5A1 (11742802_a_at) / Fold change /veh SRD5A1 (11742802_a_at) / RFU TPSAB1 /// TPSB2 (11721975_s_at) / Fold change /veh TPSAB1 /// TPSB2 (11721975_s_at) / RFU GSTM3 (11746129_a_at) / Fold change /veh GSTM3 (11746129_a_at) / RFU IL23R (11737362_x_at) / Fold change /veh IL23R (11737362_x_at) / RFU TMEM51 (11727254_a_at) / Fold change /veh TMEM51 (11727254_a_at) / RFU PIWIL2 (11732686_x_at) / Fold change /veh PIWIL2 (11732686_x_at) / RFU ORM1 (11744905_x_at) / Fold change /veh ORM1 (11744905_x_at) / RFU CCDC152 (11743942_at) / Fold change /veh CCDC152 (11743942_at) / RFU ECM1 (11717891_a_at) / Fold change /veh ECM1 (11717891_a_at) / RFU IL23R (11748794_a_at) / Fold change /veh IL23R (11748794_a_at) / RFU TNFAIP8L3 (11732012_x_at) / Fold change /veh TNFAIP8L3 (11732012_x_at) / RFU MBOAT4 (11741988_at) / Fold change /veh MBOAT4 (11741988_at) / RFU 11764193_at / Fold change /veh 11764193_at / RFU TMEM53 (11763286_at) / Fold change /veh TMEM53 (11763286_at) / RFU MAGEB2 (11727129_at) / Fold change /veh MAGEB2 (11727129_at) / RFU TMEM200A (11744735_a_at) / Fold change /veh TMEM200A (11744735_a_at) / RFU CCDC152 (11751479_a_at) / Fold change /veh CCDC152 (11751479_a_at) / RFU FAM211A (11726209_a_at) / Fold change /veh FAM211A (11726209_a_at) / RFU RGS16 (11746705_a_at) / Fold change /veh RGS16 (11746705_a_at) / RFU VCAN (11755009_s_at) / Fold change /veh VCAN (11755009_s_at) / RFU RHOB (11743442_s_at) / Fold change /veh RHOB (11743442_s_at) / RFU RGS16 (11720943_a_at) / Fold change /veh RGS16 (11720943_a_at) / RFU RGS16 (11720944_at) / Fold change /veh RGS16 (11720944_at) / RFU, VPS4B / Fold change vs veh, VPS4B / RFU, CREB1 / Fold change vs veh, CREB1 / RFU, DNAJC13 / Fold change vs veh, DNAJC13 / RFU, GNAQ / Fold change vs veh, GNAQ / RFU, CDK5R1 / Fold change vs veh, CDK5R1 / RFU, ZRANB3 / Fold change vs veh, ZRANB3 / RFU, CUL4A / Fold change vs veh, CUL4A / RFU, CCNY / Fold change vs veh, CCNY / RFU, UFL1 / Fold change vs veh, UFL1 / RFU, COG3 / Fold change vs veh, COG3 / RFU, DIAPH2 / Fold change vs veh, DIAPH2 / RFU, SKA2 / Fold change vs veh, SKA2 / RFU, AFF3 / Fold change vs veh, AFF3 / RFU, LMF1 / Fold change vs veh, LMF1 / RFU, IPO11 / Fold change vs veh, IPO11 / RFU, DFFB / Fold change vs veh, DFFB / RFU, FOXP1 / Fold change vs veh, FOXP1 / RFU, CARD8 / Fold change vs veh, CARD8 / RFU, STRN3 / Fold change vs veh, STRN3 / RFU, ADK / Fold change vs veh, ADK / RFU, RASSF2 / Fold change vs veh, RASSF2 / RFU, WIPF1 / Fold change vs veh, WIPF1 / RFU, LARP1B / Fold change vs veh, LARP1B / RFU, RASA1 / Fold change vs veh, RASA1 / RFU, RB1 / Fold change vs veh, RB1 / RFU, PPFIA1 / Fold change vs veh, PPFIA1 / RFU, MAT2A / Fold change vs veh, MAT2A / RFU, CCT5 / Fold change vs veh, CCT5 / RFU, WDR92 / Fold change vs veh, WDR92 / RFU, CUX1 / Fold change vs veh, CUX1 / RFU, TTC7A / Fold change vs veh, TTC7A / RFU, TMEM135 / Fold change vs veh, TMEM135 / RFU, DEPTOR / Fold change vs veh, DEPTOR / RFU, CPM / Fold change vs veh, CPM / RFU, DNAJB6 / Fold change vs veh, DNAJB6 / RFU, CACNA2D3 / Fold change vs veh, CACNA2D3 / RFU, DTX4 / Fold change vs veh, DTX4 / RFU, TFCP2 / Fold change vs veh, TFCP2 / RFU, GMCL1 /// GMCL1P1 / Fold change vs veh, GMCL1 /// GMCL1P1 / RFU, AEBP2 / Fold change vs veh, AEBP2 / RFU, SNHG1 /// SNORD22 /// SNORD25 /// SNORD26 /// SNORD27 /// SNORD28 /// SNORD29 /// SNORD31 / Fold change vs veh, SNHG1 /// SNORD22 /// SNORD25 /// SNORD26 /// SNORD27 /// SNORD28 /// SNORD29 /// SNORD31 / Fold change (Aza/veh), C12orf56 (ProbeSet 11735607_a_at) / Fold change (ACY-1035/veh), C12orf56 (ProbeSet 11735607_a_at) / Fold change (Aza/veh), FGFR1OP (ProbeSet 11751329_s_at) / Fold change (ACY-1035/veh), FGFR1OP (ProbeSet 11751329_s_at) / Fold change (Aza/veh), VPS36 (ProbeSet 11739960_a_at) / Fold change (ACY-1035/veh), VPS36 (ProbeSet 11739960_a_at) / RFU SYPL1 (11715823_x_at) / Fold change /veh SYPL1 (11715823_x_at) / RFU IGFBP7 (11715501_s_at) / Fold change /veh IGFBP7 (11715501_s_at) / RFU REEP3 (11722064_at) / Fold change /veh REEP3 (11722064_at) / RFU IGLL1 (11728026_x_at) / Fold change /veh IGLL1 (11728026_x_at): dose or concentration left out as unconfirmed
Conditions: ProbeSet 11725787_a_at; LIST B

Nc1ccc(-c2cccs2)cc1NC(=O)c1ccc2c(c1)cc(C1CC1)n2CCN1CCOCC1 [ACY-1035]
RFU, TMA16: 138.28 RFU
